According to patent US12438175B2, “Aqueous organic-based electrolyte for redox flow battery” (KEMIWATT, priority 2019, dated 2025):
≈ marks a conversion by molar mass, not a printed value. Where a name gives a salt, the structure may show the parent alone.

What was measured:
[1] = comparative redox active material in negolytes; cited from earlier work
[2] = Cycling tests of redox flow battery cells in constant power cycling mode
[3] = Cyclic voltammetry / linear sweep voltammetry, electrochemical parameters; type: physicochemical; settings: for Peak-to-peak separation ΔEp: 100 mV/s, third cycle; for E^0′ apparent standard redox potential / E1/2 half-wave potential: 5 mM, pH 14, 1 M KOH; for E1/2 half-wave potential: RDE; for k^0′O × 10^−2 apparent heterogeneous rate constant: Gileadi's equation; for DO × 10^−6 diffusion coefficient: Randles-Sevcik
Experimental: Cyclic voltammetry experiments were performed at a 100 mV/s scan rate for compounds M3CH, D3CH, D4CH, M3SH, D3SH, M4SH and D4SH in solution at pH 13 (KOH 0.1 M) or pH 14 (KOH 1 M).
The electrochemical experiments were conducted on an electrochemical working station (BioLogic Science Instruments VSP) at 25° C. using a three-electrodes electrochemical cell, where a Pt wire was employed at the counter electrode (CE), an Ag/AgCl/KCl saturated electrode immerged in a 1 M KOH solution protected from the cell by a porous frit glass served as the reference electrode (RE) and a rotating disc electrode (RDE) mounted with a glassy carbon (GC, 7.069 mm^2) disk was used as the working electrode (WE), respectively. The potential was reported relative to the normal hydrogen electrode (NHE), which was converted from the Ag/AgCl reference electrode (0.230 V versus NHE). The ohmic drop between the WE and RE is determined by current interrupt experiments and leads to a value close to 0.7069 Ω·cm^2. All cyclic voltammetry experiments were conducted by alleviating most of this resistance (85%) using the potentiostat manual ohmic drop compensation. Before each electrochemical measurement, the GC disk electrode was polished using SiC P4000 foil.
Each recorded cyclic voltammetry of the reduction and the oxidation process of a compound at a given scan rate is analyzed by measuring ip,a=anodic peak current; ip,c=cathodic peak current; v=scan rate; Ep,a=anodic peak potential; Ep,c=cathodic peak potential; ΔEp=Ep,a−Ep,c; the apparent standard redox potential E^0′=[…].
Linear sweep voltammetry (LSV) using the RDE at various rotation speed (400 up to 1 000 RPM) were performed to determine the averaged half-wave potential E1/2.
The oxidation (DO) and the reduction (DR) diffusion coefficients were calculated using Randles-Sevcik (RS) equation ip=0.4463·n^3/2·F^3/2·A·C·v^1/2·D^1/2·R^−1/2·T^−1/2=Cye·v^1/2·D^1/2, n=number of electrons exchanged during the redox process; F=faradaic number=96485 C·mol^−1; A=electrode active surface; C=redox active molecule concentration; R=gas constant=8.314 J·K^−1·mol^−1; T=bulk temperature=299 K. The experiments are conducted by cyclic voltammetry at various scan rates ranging from 10 mV/s up to 20 V/s.
A graphic of lip,al and lip,cl=f(Cte×v^1/2) is plotted, if the redox process is reversible and diffusion controlled, the peak current should be proportional to the square root of the scan rate. The diffusion coefficients (oxidation and reduction) are then calculated by taking the square of the regression lines slopes. Diffusion coefficients (oxidation and reduction processes) are evaluated by plotting the peak current versus a constant multiplied by the square root of the scan rate. The plots regression line gives a straight line with perfect correlation coefficient (100%) confirming that the redox process is reversible and diffusion controlled. The square of each slope gives the associated coefficient diffusion in cm^2 s^−1.
The apparent heterogeneous rate constant during oxidation (k^0′O)/and reduction (k^0′R) process was calculated using Gileadi's equation (C. Rüssel, W. Jaenicke, Electrochimica Acta, Vol 27, N° 12, 1745-1750, 1982) log k^0′=−0.48α+0.52 +log[(nFαvcD)/(2.303RT)]^1/2; vc is the critical scan rate, it is calculated by plotting the peak potentials versus the logarithm of the scan rates, and is more precise when a very wide range of scan rates is used, which is the case here (0.010 up to 20 V·s^−1), it is determined at the x-axis of the point of intersection of the regression lines drawn at low and high scan rates; a is the transfer coefficient that is supposed to be close to 0.5 for all presented compounds.
Peak-to-peak separation ΔEp values were determined from the third cycle of each cyclic voltammogram (FIGS. 1 and 2) and are gathered in the following table 4.
The standard redox process reversibility evaluation is performed in diluted state, at 5 mM of concentration, at pH 14 buffered with 1 M of KOH. […]

[4] = type: physicochemical; settings: pH 13.5
Experimental: (§1) Post-cycling analyses were carried out using ^1H NMR spectroscopy electrolytes. […] Taking into account the electrolyte-membrane contact time during this cycling test and the NMR spectroscopy resolution, the permeability coefficient of compound D4CH can be estimated below 10^−12 cm^2/s or less than 1% capacity loss per year of electrolyte-membrane contact.
as §1, with “M4SH” for “D4CH”

[5] = Solubility in aqueous solution at various pH by shake-flask method; settings: thermodynamic from solid
Experimental: An aqueous solution (containing either KCl 1M, KOH 1M or H2SO4 1M) is added over 100 mg of compound by 20 μL portions until complete solubilization. We obtain an approximate range of solubility values calculated as following:
Smax˜(m/M)/V; m=mass of evaluated compound (g); M=molar mass of evaluated compound (g·mol^−1); V=added volume (L).

[6] = 0.3 M AQ-2,7-DS, pH 13.0, Battery no 3, 60 mL, flowrate 0.5 mL/min/cm^2
[7] = 0.3 M AQ-2,7-DS, pH 13.0, Battery no 3, 60 mL, flowrate 5 mL/min/cm^2
[8] = 0.3 M AQ-2,7-DS, pH 13.0, Battery no 4, 120 mL, flowrate 0.5 mL/min/cm^2
[9] = 0.3 M AQ-2,7-DS, pH 13.0, Battery no 4, 120 mL, flowrate 5 mL/min/cm^2
[10] = extrapolated from 5 days, flowrate 0.5 mL/min/cm^2, negolyte 120/120/40/370 mL
[11] = 0.2 M ARS, pH 14.0, Battery no 1, 60 mL, flowrate 0.5 mL/min/cm^2
[12] = 0.2 M ARS, pH 14.0, Battery no 1, 60 mL, flowrate 5 mL/min/cm^2
[13] = 0.2 M ARS, pH 14.0, Battery no 2, 120 mL, flowrate 0.5 mL/min/cm^2
[14] = 0.2 M ARS, pH 14.0, Battery no 2, 120 mL, flowrate 5 mL/min/cm^2
[15] = 0.3 M Complexone, pH 13.7, Battery no 5, 40 mL, flowrate 0.5 mL/min/cm^2
[16] = 0.3 M Complexone, pH 13.7, Battery no 5, 40 mL, flowrate 5 mL/min/cm^2

| Compound | DO × 10^−6 [1] | k^0′O × 10^−2 [1] | Peak-to-peak separation ΔEp ([3]; pH 13 (KOH 0.1 M)) [mV] | Peak-to-peak separation ΔEp ([3]; pH 14 (KOH 1 M)) [mV] | Solubility, solution at pH 0 (H2SO4 1M) [M] | Solubility, solution at pH 14 (KOH 1M) [M] | other results |
| --- | --- | --- | --- | --- | --- | --- | --- |
| O=C1c2ccc(S(=O)(=O)O)cc2C(=O)c2cc(S(=O)(=O)O)ccc21 [AQ-2,7-DS, Anthraquinone-2,7-disulfonic acid disodium salt] | 3.8 × 10^−6 cm^2/s | 0.72 × 10^−2 cm/s |  |  |  |  | Stability in cycles (−20%) [2, 6]: 563 cycles; Stability in days (−20%) [2, 6]: 27.1 days; Stability in cycles (−20%) [2, 7]: 378 cycles; Stability in days (−20%) [2, 7]: 21.1 days; Stability in cycles (−20%) [2, 8]: 0 cycles; Stability in days (−20%) [2, 8]: 0.0 days; Stability in cycles (−20%) [2, 9]: 173 cycles; Stability in days (−20%) [2, 9]: 19.6 days; behaviour after decreasing the flowrate down to 0.5 mL/min/cm^2 ([2]; constraints close to real systems, 0.3 M, pH 13.0): precipitates directly; Stability in cycles (−20%) [2, 10]: 0 cycles; Stability in days (−20%) [2, 10]: 0.0 days |
| O=C1c2ccccc2C(=O)c2c1cc(S(=O)(=O)O)c(O)c2O [ARS, 1,2-Dihydroxyanthraquinone-3-sulfonic acid sodium salt] |  |  |  |  |  |  | Stability in cycles (−20%) [2, 11]: 81 cycles; Stability in days (−20%) [2, 11]: 3.5 days; Stability in cycles (−20%) [2, 12]: 138 cycles; Stability in days (−20%) [2, 12]: 6.4 days; Stability in cycles (−20%) [2, 13]: 45 cycles; Stability in days (−20%) [2, 13]: 3.8 days; Stability in cycles (−20%) [2, 14]: 62 cycles; Stability in days (−20%) [2, 14]: 6.6 days; Stability in cycles (−20%) [2, 10]: 45 cycles; Stability in days (−20%) [2, 10]: 3.5 days |
| C[N+](C)(C)CCC[n+]1ccc(-c2cc[n+](CCC[N+](C)(C)C)cc2)cc1.[Cl-].[Cl-].[Cl-].[Cl-] [BTMAP-Vi] | 3.3 × 10^−6 cm^2/s | 2.2 × 10^−2 cm/s |  |  |  |  |  |
| O=C(O)CN(CC(=O)O)Cc1cc2c(c(O)c1O)C(=O)c1ccccc1C2=O [Complexone, 3,4-Dihydroxyanthraquinon-2-yl-methylimino-diacetic acid] |  |  |  |  |  |  | Stability in cycles (−20%) [2, 15]: 63 cycles; Stability in days (−20%) [2, 15]: 3.2 days; Stability in cycles (−20%) [2, 16]: 69 cycles; Stability in days (−20%) [2, 16]: 3.4 days; Stability in cycles (−20%) [2, 10]: 74 cycles; Stability in days (−20%) [2, 10]: 3.3 days |
| O=C(O)CCCOc1ccc(OCCCC(=O)O)c2c1C(=O)c1ccccc1C2=O [Compound D3CH] |  |  | 267 | 46 | 0.30 | 0.42 |  |
| O=C1c2ccccc2C(=O)c2c(OCCCS(=O)(=O)O)ccc(OCCCS(=O)(=O)O)c21 [Compound D3SH] |  |  | 246 | 40 | 0.73 | 0.92 |  |
| O=C1c2ccccc2C(=O)c2c(OCCCS(=O)(=O)[O-])ccc(OCCCS(=O)(=O)[O-])c21.[Na+].[Na+] [Compound D3SNa] |  |  |  |  | 0.15 | 0.44 |  |
| O=C(O)CCCCOc1ccc(OCCCCC(=O)O)c2c1C(=O)c1ccccc1C2=O [Compound D4CH] |  |  | 328 | 32 | 0.00 | 0.46 | compound degradation in negolyte after cycling [4]: No traces of compound D4CH degradation were visible |
| O=C1c2ccccc2C(=O)c2c(OCCCCS(=O)(=O)O)ccc(OCCCCS(=O)(=O)O)c21 [Compound D4SH] |  |  | 390 | 32 | 0.91 | 0.78 |  |
| O=C1c2ccccc2C(=O)c2c(OCCCS(=O)(=O)O)ccc(O)c21 [Compound M3SH] |  |  | 97 | 40 | 0.31 | 0.23 | E^0′ apparent standard redox potential [3]: −0.489 V vs NHE; E1/2 half-wave potential [3]: −0.489 V vs NHE; k^0′O × 10^−2 apparent heterogeneous rate constant [3]: 3.1 × 10^−2 cm/s; DO × 10^−6 diffusion coefficient [3]: 4.6 × 10^−6 cm^2/s |
| O=C1c2ccccc2C(=O)c2c(OCCCS(=O)(=O)O)ccc(O)c21 [Compound M3SNa] |  |  |  |  |  |  | solubility ([5]; aqueous H2SO4 1M solution, pH 0, aqueous buffer): 460 mM (≈ 167 mg/mL); solubility ([5]; unbuffered aqueous KCl 1M solution, saline or isotonic): 320 mM (≈ 116 mg/mL) |
| O=C1c2ccccc2C(=O)c2c(OCCCCS(=O)(=O)O)ccc(O)c21 [Compound M4SH] |  |  | 97 | 39 |  | 0.46 | compound degradation in negolyte after cycling [4]: no traces of compound M4SH degradation were visible; E^0′ apparent standard redox potential [3]: −0.494 V vs NHE; E1/2 half-wave potential [3]: −0.494 V vs NHE; k^0′O × 10^−2 apparent heterogeneous rate constant [3]: 3.1 × 10^−2 cm/s; DO × 10^−6 diffusion coefficient [3]: 5.8 × 10^−6 cm^2/s |
| O=C1c2ccccc2C(=O)c2c(OCCCCS(=O)(=O)[O-])ccc(O)c21.[Na+] [Compound M4SNa] |  |  |  |  | 0.37 | 0.88 |  |
| O=C(O)CCCOc1ccc2c(c1)C(=O)c1ccc(OCCCC(=O)O)cc1C2=O [DBEAQ] | 1.58 × 10^−6 cm^2/s | 0.70 × 10^−2 cm/s |  |  |  |  |  |
| O=C1c2ccc(O)cc2C(=O)c2ccc(O)cc21 [DHAQ] | 4.8 × 10^−6 cm^2/s | 0.70 × 10^−2 cm/s |  |  |  |  |  |
| O=C1C=C(O)C(=O)C=C1O [DHBQ] | 3.66 × 10^−6 cm^2/s | 0.21 × 10^−2 cm/s |  |  |  |  |  |
| O=C1c2ccc(OCCCP(=O)(O)O)cc2C(=O)c2ccc(OCCCP(=O)(O)O)cc21 [DPPEAQ] | 1.37 × 10^−6 cm^2/s |  |  |  |  |  |  |
| Cc1cc2nc3c(=O)[nH]c(=O)nc-3n(C[C@H](O)[C@H](O)[C@H](O)COP(=O)([O-])O)c2cc1C.[Na+] [Flavine FMN-Na] | 1.3 × 10^−6 cm^2/s | 0.53 × 10^−2 cm/s |  |  |  |  |  |
| O=C1c2ccccc2C(=O)c2c(O)ccc(O)c21 [Quinizarin, quinizarin] |  |  |  |  |  |  | solubility ([5]; aqueous KOH 1M solution, pH 14, aqueous buffer): < 50 mM |
